Tested on: Alternative Pathway Dependent C3b formation in Normal Human Serum
Assay: Alternative pathway-dependent C3b assay on LPS coated plates
Assay type: biochemical
Settings: for inhibition of C3b formation: increasing concentrations
Text: As a result, C3b is generated and is deposited on to LPS. […] LPS bound C3b was detected with a rabbit anti-human C3c antibody (Dako Corp). Rabbit antibody bolund to C3b was detected with peroxidase-conjugated goat anti-rabbit polyclonal antibody. Peroxidase was detected with TMB substrate using common methods.
It was of interest to us to determine whether the Dextran Sulfate might appreciably affect the C3b generation, an important component of the amplification loop of the complement cascade. To analyze the effects of the Dextran Sulfate on C3b formation via the alternative pathway, an assay was utilized in which bacterial LPS was used as a substrate to initiate the alternative complement pathway cascade. […] Microtiter wells were coated with LPS (2 μg/50 μl per well) in VBS overnight at 4° C. Uncoated wells served as background controls. After aspirating the LPS solution, wells were treated with blocking solution and incubated with various concentrations of normal human serum. Following a 2 hour incubation at 37° C., deposited C3b was detected with rabbit anti-human C3c polyclonal antibody (Accurate Biochemicals) using standard ELISA methodologies essentially as described in the Examples above. […] The amount of inhibition of soluble C3b deposition was determined using the antibody detection system described in the Examples above.

With Dextran Sulfate [NM3014] the “IC50 of inhibition of C3b formation” value (10% normal human serum) was 7 to 10 µg/mL, the “inhibition of C3b formation” value was “inhibited C3b formation in a dose dependent manner” and the “inhibition of C3b formation” value (listed as Dextran Sulfate) was “completely prevents C3b generation in a dose dependent manner”.
